In brackets after ≈: the same amount, converted by molar mass.
Columns and labels:
[1] = Mutagenecity in Salmonella typhimurium in presence of s9 fraction by Ames test; format: toxicity, subcellular; settings: salmonella enterica subsp. enterica serovar typhimurium
[2] = Chemical stability of the compound assessed as decomposition at pH 1 measured upto 24 hrs; format: physicochemical; settings: buffer, pH 1, 24 h
[3] = Chemical stability of the compound assessed as decomposition at pH 7 measured upto 24 hrs; format: physicochemical; settings: buffer, pH 7, 24 h
[4] = Chemical stability of the compound assessed as decomposition at pH 10 measured upto 24 hrs; format: physicochemical; settings: buffer, pH 10, 24 h
[5] = Metabolic stability in rat liver microsomes at pH 7.4 in presence of NADPH/UDPGA by LC/MS/MS analysis; format: ADME, Microsome
[6] = Metabolic stability in dog liver microsomes at pH 7.4 in presence of NADPH/UDPGA by LC/MS/MS analysis; format: ADME, Canis lupus familiaris, Microsome
[7] = Metabolic stability in cryopreserved rat liver hepatocytes at 10 uM incubated upto 4 hrs by LC/MS/MS analysis; format: ADME, cell-based, Hepatocyte
[8] = Metabolic stability in cryopreserved dog liver hepatocytes at 10 uM incubated upto 4 hrs by LC/MS/MS analysis; format: ADME, cell-based, Canis lupus familiaris, Hepatocyte
[9] = Metabolic stability in cryopreserved human liver hepatocytes at 10 uM incubated upto 4 hrs by LC/MS/MS analysis; format: ADME, cell-based, Hepatocyte
[10] = Permeability across apical to basolateral side human Caco-2 cells incubated for 2 hrs measured by LC/MS/MS analysis; format: ADME, cell-based; settings: caco-2, 2 h
[11] = biological target: T1, Alpha-2B adrenergic receptor (Homo sapiens, UniProt P18089); assay: Antagonist activity at human recombinant adrenergic alpha2B receptor expressed in CHO cell treated with compound for 5 mins followed by norepinephrine measured for 50 secs by microtitre plate method; format: functional, cell-based
T1 sequence (P18089 whole entry): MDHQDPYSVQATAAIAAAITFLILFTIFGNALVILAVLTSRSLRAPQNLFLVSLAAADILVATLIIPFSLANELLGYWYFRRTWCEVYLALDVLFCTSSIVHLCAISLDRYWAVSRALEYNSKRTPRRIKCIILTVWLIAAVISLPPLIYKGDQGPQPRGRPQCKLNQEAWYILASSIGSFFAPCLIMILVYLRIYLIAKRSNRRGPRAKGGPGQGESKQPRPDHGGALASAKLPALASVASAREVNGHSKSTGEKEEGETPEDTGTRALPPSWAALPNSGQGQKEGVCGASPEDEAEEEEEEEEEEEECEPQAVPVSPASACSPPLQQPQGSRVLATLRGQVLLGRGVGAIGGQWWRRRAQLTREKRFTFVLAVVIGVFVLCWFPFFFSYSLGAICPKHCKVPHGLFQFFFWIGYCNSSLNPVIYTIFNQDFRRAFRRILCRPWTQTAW

[12] = Solubility of the compound in pH 7 shaken for 24 hrs; format: physicochemical; settings: buffer
[13] = Chemical stability of the compound in 0.9% NaCl at pH 7.4 measured upto 1 week at 90 degC; format: physicochemical; settings: buffer, pH 7.4, 168 h; time < 1 weeks
[14] = Chemical stability of the compound in 0.9% NaCl at pH 7.4 measured for 13 week at 40 degC; format: physicochemical; settings: buffer, pH 7.4, 2184 h; time 13 weeks
[15] = Chemical stability of the compound at pH 1 measured upto 7 days; format: physicochemical; settings: buffer, pH 1, 168 h; time < 7 day
[16] = Chemical stability of the compound at pH 7 measured upto 7 days; format: physicochemical; settings: buffer, pH 7, 168 h; time < 7 day
[17] = Chemical stability of the compound at pH 10 measured upto 7 days; format: physicochemical; settings: buffer, pH 10, 168 h; time < 7 day
[18] = Stability of the compound assessed as no adsorption to the sterile filter at pH 7.4 in 0.9% NaCl by measuring feasibility of sterilization using HPLC analysis; format: physicochemical; settings: buffer
[19] = Stability of the compound assessed as no adsorption to the sterile filter at pH 7.4 in 0.9% NaCl by measuring feasibility of sterilization at 121 degC for 15 mins using HPLC analysis; format: physicochemical; settings: buffer
[20] = Plasma protein binding in human plasma assessed as unbound fraction by equilibrium dialysis base LC-MS/MS analysis; format: ADME, cell-free
[21] = Plasma protein binding in rat plasma assessed as unbound fraction by equilibrium dialysis base LC-MS/MS analysis; format: ADME, cell-free
[22] = Plasma protein binding in dog plasma assessed as unbound fraction by equilibrium dialysis base LC-MS/MS analysis; format: ADME, cell-free, Canis lupus familiaris
[23] = Plasma protein binding in monkey plasma assessed as unbound fraction by equilibrium dialysis base LC-MS/MS analysis; format: ADME, cell-free, Macaca mulatta; settings: rhesus monkey
[24] = biological target: T2, Cytochrome P450 1A2 (Homo sapiens, UniProt P05177); assay: Inhibition of human liver microsome CYP1A2 at 0.6 to 20 uM measured by LC/MS/MS analysis; format: ADME; settings: microsomes, dose 0.6-20 µM
T2 sequence (P05177 whole entry): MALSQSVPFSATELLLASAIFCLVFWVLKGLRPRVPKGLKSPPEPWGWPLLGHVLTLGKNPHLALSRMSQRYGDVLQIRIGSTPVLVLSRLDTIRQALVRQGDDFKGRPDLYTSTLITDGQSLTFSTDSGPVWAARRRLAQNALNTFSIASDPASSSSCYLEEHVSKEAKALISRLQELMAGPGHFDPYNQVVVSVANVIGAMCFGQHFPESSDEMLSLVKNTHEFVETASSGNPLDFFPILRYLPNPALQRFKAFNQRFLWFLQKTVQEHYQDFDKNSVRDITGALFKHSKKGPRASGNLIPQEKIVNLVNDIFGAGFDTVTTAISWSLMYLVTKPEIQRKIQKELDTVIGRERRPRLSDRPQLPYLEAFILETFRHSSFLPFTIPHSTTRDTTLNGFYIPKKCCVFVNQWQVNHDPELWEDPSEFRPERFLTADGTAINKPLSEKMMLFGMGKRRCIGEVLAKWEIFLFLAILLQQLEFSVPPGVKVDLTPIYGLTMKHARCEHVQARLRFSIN

[25] = biological target: T3, Cytochrome P450 2C8 (Homo sapiens, UniProt P10632); assay: Inhibition of human liver microsome CYP2C8 at 0.6 to 20 uM measured by LC/MS/MS analysis; format: ADME; settings: microsomes, dose 0.6-20 µM
T3 sequence (P10632 whole entry): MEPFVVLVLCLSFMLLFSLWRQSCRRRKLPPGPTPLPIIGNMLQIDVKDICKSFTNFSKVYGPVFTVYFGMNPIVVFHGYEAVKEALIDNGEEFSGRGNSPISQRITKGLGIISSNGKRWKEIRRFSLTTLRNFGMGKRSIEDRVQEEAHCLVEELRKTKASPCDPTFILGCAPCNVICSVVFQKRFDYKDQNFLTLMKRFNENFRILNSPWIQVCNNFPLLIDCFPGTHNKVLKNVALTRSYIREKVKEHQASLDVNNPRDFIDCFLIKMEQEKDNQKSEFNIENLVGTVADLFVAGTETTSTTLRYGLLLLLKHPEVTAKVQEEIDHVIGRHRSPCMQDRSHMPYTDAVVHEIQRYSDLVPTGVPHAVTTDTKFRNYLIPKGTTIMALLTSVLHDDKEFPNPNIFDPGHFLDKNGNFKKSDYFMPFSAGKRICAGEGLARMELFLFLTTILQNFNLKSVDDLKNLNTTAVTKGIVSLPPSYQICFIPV

[26] = biological target: Cytochrome P450 2C9 (Homo sapiens, UniProt P11712); assay: Inhibition of human liver microsome CYP2C9 at 0.6 to 20 uM measured by LC/MS/MS analysis; format: ADME; settings: microsomes, dose 0.6-20 µM
Cytochrome P450 2C9, sequence (P11712 whole entry): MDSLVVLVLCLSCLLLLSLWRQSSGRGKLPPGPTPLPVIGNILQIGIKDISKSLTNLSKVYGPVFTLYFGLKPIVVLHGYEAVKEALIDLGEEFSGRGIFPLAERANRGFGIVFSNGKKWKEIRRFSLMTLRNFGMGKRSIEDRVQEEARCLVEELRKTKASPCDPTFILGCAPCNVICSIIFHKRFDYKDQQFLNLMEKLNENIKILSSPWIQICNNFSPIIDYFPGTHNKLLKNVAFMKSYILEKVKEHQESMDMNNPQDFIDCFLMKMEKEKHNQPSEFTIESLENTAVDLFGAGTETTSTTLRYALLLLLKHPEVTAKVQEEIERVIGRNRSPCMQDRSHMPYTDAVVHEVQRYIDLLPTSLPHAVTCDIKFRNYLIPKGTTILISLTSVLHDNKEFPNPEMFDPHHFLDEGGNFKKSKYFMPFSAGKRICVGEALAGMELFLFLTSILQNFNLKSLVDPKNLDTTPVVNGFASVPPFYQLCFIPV

[27] = biological target: Cytochrome P450 2D6 (Homo sapiens, UniProt P10635); assay: Inhibition of human liver microsome CYP2D6 at 0.6 to 20 uM measured by LC/MS/MS analysis; format: ADME; settings: microsomes, dose 0.6-20 µM
Cytochrome P450 2D6, sequence (P10635 whole entry): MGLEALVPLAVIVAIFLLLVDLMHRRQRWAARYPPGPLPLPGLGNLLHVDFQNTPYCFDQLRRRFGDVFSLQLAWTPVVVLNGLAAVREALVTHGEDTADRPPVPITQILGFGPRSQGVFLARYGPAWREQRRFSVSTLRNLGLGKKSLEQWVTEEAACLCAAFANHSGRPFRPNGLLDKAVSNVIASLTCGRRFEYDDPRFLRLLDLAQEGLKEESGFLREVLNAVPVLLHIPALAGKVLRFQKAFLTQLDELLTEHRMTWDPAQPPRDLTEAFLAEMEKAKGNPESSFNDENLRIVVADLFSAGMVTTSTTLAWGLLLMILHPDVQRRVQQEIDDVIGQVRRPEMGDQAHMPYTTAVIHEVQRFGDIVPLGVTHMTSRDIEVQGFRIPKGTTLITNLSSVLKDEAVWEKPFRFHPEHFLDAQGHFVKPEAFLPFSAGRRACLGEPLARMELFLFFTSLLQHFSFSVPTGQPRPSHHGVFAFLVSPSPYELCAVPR

[28] = biological target: T4, Cytochrome P450 3A4 (Homo sapiens, UniProt P08684); assay: Inhibition of human liver microsome CYP3A4 at 0.6 to 20 uM measured by LC/MS/MS analysis; format: ADME; settings: microsomes, dose 0.6-20 µM
T4 sequence (P08684 whole entry): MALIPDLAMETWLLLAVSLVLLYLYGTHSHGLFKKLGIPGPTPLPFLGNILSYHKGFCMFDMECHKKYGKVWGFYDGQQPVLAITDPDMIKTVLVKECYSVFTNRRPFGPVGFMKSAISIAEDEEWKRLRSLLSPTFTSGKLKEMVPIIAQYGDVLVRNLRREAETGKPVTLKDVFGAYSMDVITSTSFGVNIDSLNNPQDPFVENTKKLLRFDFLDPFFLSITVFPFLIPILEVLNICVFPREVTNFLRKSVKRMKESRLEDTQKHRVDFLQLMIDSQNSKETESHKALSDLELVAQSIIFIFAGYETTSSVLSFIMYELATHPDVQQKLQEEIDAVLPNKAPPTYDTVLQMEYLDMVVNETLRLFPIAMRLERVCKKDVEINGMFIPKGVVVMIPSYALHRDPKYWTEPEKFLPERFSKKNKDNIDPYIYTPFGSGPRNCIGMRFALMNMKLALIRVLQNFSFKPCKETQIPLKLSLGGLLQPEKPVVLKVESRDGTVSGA

[29] = Clearance in dog plasma 0.3 mg/kg, iv measured 0.033 to 24 hrs by LC-MS/MS analysis; format: ADME, organism-based, Canis lupus familiaris; settings: time 0.033-24 hrs
[30] = biological target: T2, Cytochrome P450 1A2; assay: Induction of human hepatocyte CYP1A2 treated upto 211 uM for 48 hrs by measuring mRNA expression using delta delta Ct method; format: ADME, cell-based; settings: hepatocytes
[31] = biological target: T4, Cytochrome P450 3A4; assay: Induction of human hepatocyte CYP3A4 treated upto 211 uM for 48 hrs by measuring mRNA expression using delta delta Ct method; format: ADME, cell-based; settings: hepatocytes
[32] = biological target: Voltage-gated inwardly rectifying potassium channel KCNH2 (Homo sapiens, UniProt Q12809); assay: Inhibition of hERG by electrode whole cell voltage clamp method; format: toxicity
Voltage-gated inwardly rectifying potassium channel KCNH2, sequence (Q12809 whole entry): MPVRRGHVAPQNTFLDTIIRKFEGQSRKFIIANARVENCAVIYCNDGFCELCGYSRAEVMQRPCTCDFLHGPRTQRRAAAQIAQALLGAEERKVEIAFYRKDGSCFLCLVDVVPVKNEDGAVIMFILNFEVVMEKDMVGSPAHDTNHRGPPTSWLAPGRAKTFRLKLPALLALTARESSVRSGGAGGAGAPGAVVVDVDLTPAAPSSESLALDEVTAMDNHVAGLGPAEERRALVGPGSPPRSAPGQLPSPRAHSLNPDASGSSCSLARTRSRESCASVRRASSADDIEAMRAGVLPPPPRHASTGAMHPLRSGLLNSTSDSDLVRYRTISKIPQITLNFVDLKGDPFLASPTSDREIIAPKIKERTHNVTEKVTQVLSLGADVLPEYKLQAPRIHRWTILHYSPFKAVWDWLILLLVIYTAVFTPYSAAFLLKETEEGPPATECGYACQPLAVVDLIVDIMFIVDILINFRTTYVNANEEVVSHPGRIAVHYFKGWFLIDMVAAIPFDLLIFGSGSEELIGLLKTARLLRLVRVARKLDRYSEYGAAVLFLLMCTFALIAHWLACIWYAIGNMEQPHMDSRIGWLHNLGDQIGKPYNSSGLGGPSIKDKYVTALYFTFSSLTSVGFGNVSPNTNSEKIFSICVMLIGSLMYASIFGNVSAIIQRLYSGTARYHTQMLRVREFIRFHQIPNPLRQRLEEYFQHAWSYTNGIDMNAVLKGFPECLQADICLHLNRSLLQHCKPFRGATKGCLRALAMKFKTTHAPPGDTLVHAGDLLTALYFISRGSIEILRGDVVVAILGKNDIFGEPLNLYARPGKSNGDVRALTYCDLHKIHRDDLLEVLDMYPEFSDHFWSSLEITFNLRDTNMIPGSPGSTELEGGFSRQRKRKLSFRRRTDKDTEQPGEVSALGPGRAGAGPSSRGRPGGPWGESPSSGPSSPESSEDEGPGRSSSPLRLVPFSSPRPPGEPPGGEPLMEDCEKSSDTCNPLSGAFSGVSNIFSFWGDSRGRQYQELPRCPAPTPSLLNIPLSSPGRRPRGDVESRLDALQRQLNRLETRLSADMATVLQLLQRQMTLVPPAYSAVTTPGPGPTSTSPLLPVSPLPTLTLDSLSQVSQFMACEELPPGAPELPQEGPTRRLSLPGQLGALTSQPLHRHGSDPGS

[33] = biological target: Sodium channel protein type 5 subunit alpha (Homo sapiens, UniProt Q14524); assay: Inhibition of human Nav1.5 channel; format: toxicity
[34] = biological target: Voltage-dependent L-type calcium channel subunit alpha-1C (Homo sapiens, UniProt Q13936); assay: Inhibition of human Cav1.2 channel; format: toxicity
Voltage-dependent L-type calcium channel subunit alpha-1C, sequence (Q13936 whole entry): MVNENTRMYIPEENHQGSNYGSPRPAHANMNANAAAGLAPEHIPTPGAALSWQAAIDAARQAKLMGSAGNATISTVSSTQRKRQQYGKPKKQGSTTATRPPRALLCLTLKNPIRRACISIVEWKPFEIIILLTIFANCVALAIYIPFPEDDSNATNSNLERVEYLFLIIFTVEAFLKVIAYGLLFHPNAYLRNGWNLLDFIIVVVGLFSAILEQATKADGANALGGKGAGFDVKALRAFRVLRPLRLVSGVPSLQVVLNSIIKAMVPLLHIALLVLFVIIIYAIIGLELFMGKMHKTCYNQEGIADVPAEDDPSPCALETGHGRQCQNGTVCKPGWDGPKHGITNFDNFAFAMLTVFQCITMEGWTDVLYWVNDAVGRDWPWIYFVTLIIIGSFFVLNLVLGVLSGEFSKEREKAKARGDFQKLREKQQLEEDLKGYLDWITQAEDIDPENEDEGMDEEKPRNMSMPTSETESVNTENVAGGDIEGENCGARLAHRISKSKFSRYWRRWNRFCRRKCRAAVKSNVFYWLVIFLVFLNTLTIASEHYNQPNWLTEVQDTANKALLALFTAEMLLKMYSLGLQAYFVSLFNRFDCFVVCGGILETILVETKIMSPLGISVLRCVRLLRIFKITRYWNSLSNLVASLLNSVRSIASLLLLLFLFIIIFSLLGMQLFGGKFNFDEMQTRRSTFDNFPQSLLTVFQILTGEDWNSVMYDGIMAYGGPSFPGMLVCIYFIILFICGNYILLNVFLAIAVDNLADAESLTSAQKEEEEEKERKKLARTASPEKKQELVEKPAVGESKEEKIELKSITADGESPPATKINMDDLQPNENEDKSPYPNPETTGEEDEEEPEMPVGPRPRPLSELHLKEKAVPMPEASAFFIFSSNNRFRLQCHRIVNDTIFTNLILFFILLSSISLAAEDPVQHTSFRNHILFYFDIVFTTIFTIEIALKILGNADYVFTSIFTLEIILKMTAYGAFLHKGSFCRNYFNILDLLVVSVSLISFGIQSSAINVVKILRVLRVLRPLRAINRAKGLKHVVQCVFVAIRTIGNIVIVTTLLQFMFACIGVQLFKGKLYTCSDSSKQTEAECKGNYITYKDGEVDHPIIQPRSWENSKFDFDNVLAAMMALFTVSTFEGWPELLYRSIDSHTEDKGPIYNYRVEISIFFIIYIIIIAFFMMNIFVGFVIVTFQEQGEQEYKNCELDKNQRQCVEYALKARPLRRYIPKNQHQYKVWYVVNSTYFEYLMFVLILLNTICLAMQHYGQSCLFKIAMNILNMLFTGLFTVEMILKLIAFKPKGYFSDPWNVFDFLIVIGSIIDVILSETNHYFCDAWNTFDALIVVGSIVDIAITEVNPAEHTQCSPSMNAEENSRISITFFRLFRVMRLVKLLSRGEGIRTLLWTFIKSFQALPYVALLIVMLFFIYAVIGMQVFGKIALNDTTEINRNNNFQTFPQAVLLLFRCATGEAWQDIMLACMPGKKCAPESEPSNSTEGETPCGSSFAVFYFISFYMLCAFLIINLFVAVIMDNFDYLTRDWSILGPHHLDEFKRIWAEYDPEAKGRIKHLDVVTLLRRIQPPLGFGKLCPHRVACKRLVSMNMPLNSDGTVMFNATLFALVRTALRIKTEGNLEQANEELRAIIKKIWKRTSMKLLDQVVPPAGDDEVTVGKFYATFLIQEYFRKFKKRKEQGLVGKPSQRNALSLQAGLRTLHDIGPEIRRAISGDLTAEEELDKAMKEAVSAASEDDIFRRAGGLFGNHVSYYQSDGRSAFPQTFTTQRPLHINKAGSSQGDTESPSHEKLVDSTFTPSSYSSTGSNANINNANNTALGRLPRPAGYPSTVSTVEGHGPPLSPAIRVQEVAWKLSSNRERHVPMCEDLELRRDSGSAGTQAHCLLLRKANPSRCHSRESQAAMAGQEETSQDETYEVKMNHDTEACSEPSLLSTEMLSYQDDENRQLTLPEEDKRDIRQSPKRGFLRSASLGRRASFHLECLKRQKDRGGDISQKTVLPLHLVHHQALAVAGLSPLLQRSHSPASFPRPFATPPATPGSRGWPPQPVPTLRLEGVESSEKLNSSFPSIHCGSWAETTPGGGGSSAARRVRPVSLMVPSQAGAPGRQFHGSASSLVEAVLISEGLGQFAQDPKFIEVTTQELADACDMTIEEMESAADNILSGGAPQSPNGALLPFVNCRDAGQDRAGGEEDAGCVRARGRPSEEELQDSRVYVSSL

[35] = Clearance in Wistar rat plasma 0.3 mg/kg, iv measured upto 24 hrs by LC-MS/MS analysis; format: ADME, organism-based; settings: in vivo
[36] = Volume of distribution at steady state in Wistar rat plasma 0.3 mg/kg, iv measured upto 24 hrs by LC-MS/MS analysis; format: ADME, organism-based; settings: in vivo
[37] = Mean residence time in Wistar rat plasma 0.3 mg/kg, iv measured upto 24 hrs by LC-MS/MS analysis; format: ADME, organism-based; settings: in vivo
[38] = Volume of distribution at steady state in dog plasma 0.3 mg/kg, iv measured 0.033 to 24 hrs by LC-MS/MS analysis; format: ADME, organism-based, Canis lupus familiaris; settings: time 0.033-24 hrs, read-out: Vdss

Cc1noc(C)c1-n1cnc2cc(N)ccc21
Activity [1]: Toxic

CNc1cc[n+](CC(=O)Nc2ccc3c(c2)ncn3-c2c(C)noc2C)cc1.O=C[O-]
Stability [2]: Stable | Stability [3]: Stable | Stability [4]: Stable | Stability [5]: Stable | Stability [6]: Stable | Stability [7]: Stable | Stability [8]: Stable | Stability [9]: Stable | permeability [10]: 0.36 ×10⁻⁶ cm/s | Activity [1]: Toxic

CNc1cc[n+](CCNC(=O)c2ccc3c(c2)ncn3-c2c(C)noc2C)cc1.O=C[O-]
Activity [1]: Non-Toxic

CNc1cc[n+](CC(Nc2ccc3c(c2)ncn3-c2c(C)noc2C)C(F)(F)F)cc1 (racemic)
IC50 [11]: 7.05 µM

COc1ccccc1-n1cnc2cc(NC(=O)CCc3ccccn3)ccc21
solubility thermodynamic at 24 h [12]: 20 µg/mL (≈ 53.7 µM)

CNc1cc[n+](CC(=O)Nc2cccc(C)c2)cc1.O=C[O-]
Activity [1]: Non-Toxic

COc1ccccc1-n1cnc2cc(NC(C)=O)ccc21
solubility thermodynamic at 24 h [12]: 300 µg/mL (≈ 1070 µM)

CNc1cc[n+](CC(=O)Nc2cnc3c(c2)ncn3-c2ccccc2OC)cc1.O=C[O-]
Activity [1]: Toxic

CNc1ccncc1
Activity [1]: Non-Toxic

Cc1noc(C)c1N
Activity [1]: Non-Toxic

CNc1cc[n+](CCNC(=O)c2ccn3c(-c4c(C)noc4C)cnc3c2)cc1.[Cl-]
permeability [10]: 0.3 ×10⁻⁶ cm/s | Activity [1]: Non-Toxic | Stability [13]: Stable | Stability [14]: Stable | Stability [15]: Stable | Stability [16]: Stable | Stability [17]: Stable | Stability [18]: Stable | Stability [19]: Stable | Fu [20]: 85% | Fu [21]: 79% | Fu [22]: 82% | Fu [23]: 92% | inhibition (INH) [24]: Not Active | inhibition (INH) [25]: Not Active | inhibition (INH) [26]: Not Active | inhibition (INH) [27]: Not Active | inhibition (INH) [28]: Not Active | clearance [29]: 26.7 mL/min/kg | Activity [30]: Not Active | Activity [31]: Not Active | inhibition (INH) [32]: Not Active | inhibition (INH) [33]: Not Active | inhibition (INH) [34]: Not Active | CL [35]: 71.7 mL/min/kg | Vdss [36]: 0.5 L/kg | MRT [37]: 6 min | Vd [38]: 0.6 L/kg

Reference: ChEMBL document CHEMBL5380818, “BAY-6096: A Potent, Selective, and Highly Water-Soluble Adrenergic α2B Antagonist” (J Med Chem, 2023)
